For one assay, the system named is Karpas 422 cells. Put plainly: Karpas 422 cell viability, CTG (Cell Titre Glo) assay. It counts as cell-based, human. The note with it: Homo sapiens; Inhibition of proliferation of Karpas 422 cells (EZH2 Y641N); viability measured Day 4, Day 7 or Day 11, time point of the tabulated values not stated. As to the method:
Karpas 422 cell line is a human B cell non-Hodgkin's lymphoma cell line established from a patient having DLBCL. This EZH2 heterozygotic cell line expresses a mutant form of EZH2 enzyme (Y641N) that increases histone H3 methylation and this mutation has been implicated in the tumorgenesis of lymphomas, such as DLBCL.
Karpas 422 cells (PHE cat no., 06101702) were cultured in RPMI medium supplemented with 20% fetal bovine serum and 1% penicillin/1% streptomycin and plated at a density of 1000 cells/90 µl/well in 96 well white assay plates. A dose response curve for compounds of the present invention was determined by adding a 10µl aliquot of stock solutions of varying concentrations of compounds to the same medium in each well, over a concentration range of 10µM using 3-fold dilutions to a final concentration of 1.5nM. The plates were incubated at 37° C for predetermined time periods, Day 4, Day 7, or Day 11, and the viability of the cells was measured using a CTG assay kit (Cell Titre Glo; Promega cat.no G7573) on Day 4 and Day 7 in accordance with the manufacturer's instructions.
For the viability assay for the Day 11 plates, the plates were subjected to centrifugation at 1100 rpm for five minutes on Day 7 and the supernatant was removed by aspiration. The cells were resuspended in 90 µl aliquot of the appropriate growth medium lacking the compound followed by addition of 10 µl of a 10X stock of the same compound at the same concentration. The viability of the Day 11 cells was measured using the CTG assay kit described above in accordance with the manufacturer's instructions. The IC50 values for each compound at each predetermined time point were calculated using Graph pad PRISM software and the results are shown in Table 15. A = ≤250 nM; B = […] - ≤500 nM; and C = >500 nM.

In assay [1] the target is purified human, His-tagged PRC2 complex (Homo sapiens, UniProt O75530+Q15910). Put plainly: Hot Spot HMT assay: inhibition of PRC2 enzymatic activity (transfer of tritiated methyl from SAM to core histone, filter binding). It counts as biochemical. The source says:
The assay uses purified human, His-tagged PRC2 complex, including N-terminal His-tagged EZH2 enzyme, N-terminal Flag-tagged embryonic ectoderm development protein (EED), N-terminal His-tagged suppressor of zeste 12 (SUZ12), N-terminal His-tagged AEBP2, and N-terminal His-tagged RbAp48. In this assay, the transfer of the tritiated methyl group from radiolabeled S-adenosyl methionine (SAM) to purified core histone protein by EZH2 is quantitated after filtration to determine the activity of the core PRC2 complex in the presence and absence of compound.
The initial starting concentration for the serial dilutions of each compound was 1.0 µM. […] SAH (S-(5-adenosyl)-L-homocysteine) was used as a positive control for assay validation.
An aliquot of each serial dilution of test compound was added to deep 384 well plate using Acoustic Technology instrument (Echo 550, LabCyte) containing reaction buffer (50 mM Tris-HCl (pH 8.)), 0.01% Brij35, 1 mM EDTA, 1 mM DTT, 1 mM PMSF and 1% DMSO), 10 nM purified PRC2 complex and 0.05 mg/ml core histone H3 in a 5 µl volume. The reaction was mixed gently and then pre-incubated for 20 min at 30°C. The enzymatic reaction was initiated by adding 1 uM S-Adenosyl-L-[methyl - ^3H]methionine and incubated for 1 hr at 30°C. After 1 hr, the reaction product was detected using a filter binding method and the amount of tritiated H3 core histone was quantitated using a scintillation counter.

[2] abbreviates: Inhibition of PRC2-mediated enzymatic activity, 10 nM PRC2 complex, 0.05 mg/ml core histone H3, 1 uM 3H-SAM, 1 hr at 30°C.

Read-outs that look alike come from different tables or passages of the source. A value given as a limit tells only on which side of the number the result lay.

purified human, His-tagged PRC2 complex, sequence (Q15910 whole entry): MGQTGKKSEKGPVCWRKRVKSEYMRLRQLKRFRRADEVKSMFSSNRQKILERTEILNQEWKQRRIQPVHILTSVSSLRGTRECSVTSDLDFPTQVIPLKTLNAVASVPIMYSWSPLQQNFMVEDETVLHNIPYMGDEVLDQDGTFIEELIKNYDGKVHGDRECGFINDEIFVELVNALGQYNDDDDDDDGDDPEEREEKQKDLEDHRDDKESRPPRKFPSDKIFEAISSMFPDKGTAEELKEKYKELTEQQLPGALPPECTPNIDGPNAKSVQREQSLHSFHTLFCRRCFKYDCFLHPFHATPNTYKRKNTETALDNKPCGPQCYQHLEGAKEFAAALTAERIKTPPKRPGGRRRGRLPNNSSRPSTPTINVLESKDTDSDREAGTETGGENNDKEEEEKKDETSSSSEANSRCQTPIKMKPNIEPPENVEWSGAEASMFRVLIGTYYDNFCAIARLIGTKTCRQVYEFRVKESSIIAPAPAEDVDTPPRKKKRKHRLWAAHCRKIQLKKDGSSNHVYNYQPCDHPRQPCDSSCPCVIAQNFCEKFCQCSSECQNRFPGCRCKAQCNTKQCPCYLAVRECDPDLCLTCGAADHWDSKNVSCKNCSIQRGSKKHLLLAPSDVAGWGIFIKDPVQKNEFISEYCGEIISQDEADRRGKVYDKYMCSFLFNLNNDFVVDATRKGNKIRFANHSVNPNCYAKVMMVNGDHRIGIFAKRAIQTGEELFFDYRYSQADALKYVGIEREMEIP
purified human, His-tagged PRC2 complex, sequence (O75530 whole entry): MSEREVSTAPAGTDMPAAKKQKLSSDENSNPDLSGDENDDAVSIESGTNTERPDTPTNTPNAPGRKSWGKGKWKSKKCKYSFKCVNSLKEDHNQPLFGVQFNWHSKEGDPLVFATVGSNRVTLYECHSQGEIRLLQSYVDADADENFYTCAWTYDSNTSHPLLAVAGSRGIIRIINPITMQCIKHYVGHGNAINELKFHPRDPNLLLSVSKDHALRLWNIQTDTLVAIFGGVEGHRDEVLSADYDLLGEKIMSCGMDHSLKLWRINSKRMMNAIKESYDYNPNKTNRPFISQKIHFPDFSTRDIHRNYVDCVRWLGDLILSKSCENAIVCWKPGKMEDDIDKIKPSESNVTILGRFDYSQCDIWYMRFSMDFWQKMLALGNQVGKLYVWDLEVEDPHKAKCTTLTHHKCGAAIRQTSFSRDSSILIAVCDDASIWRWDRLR
purified human, His-tagged PRC2 complex, sequence (Q15022 whole entry partner): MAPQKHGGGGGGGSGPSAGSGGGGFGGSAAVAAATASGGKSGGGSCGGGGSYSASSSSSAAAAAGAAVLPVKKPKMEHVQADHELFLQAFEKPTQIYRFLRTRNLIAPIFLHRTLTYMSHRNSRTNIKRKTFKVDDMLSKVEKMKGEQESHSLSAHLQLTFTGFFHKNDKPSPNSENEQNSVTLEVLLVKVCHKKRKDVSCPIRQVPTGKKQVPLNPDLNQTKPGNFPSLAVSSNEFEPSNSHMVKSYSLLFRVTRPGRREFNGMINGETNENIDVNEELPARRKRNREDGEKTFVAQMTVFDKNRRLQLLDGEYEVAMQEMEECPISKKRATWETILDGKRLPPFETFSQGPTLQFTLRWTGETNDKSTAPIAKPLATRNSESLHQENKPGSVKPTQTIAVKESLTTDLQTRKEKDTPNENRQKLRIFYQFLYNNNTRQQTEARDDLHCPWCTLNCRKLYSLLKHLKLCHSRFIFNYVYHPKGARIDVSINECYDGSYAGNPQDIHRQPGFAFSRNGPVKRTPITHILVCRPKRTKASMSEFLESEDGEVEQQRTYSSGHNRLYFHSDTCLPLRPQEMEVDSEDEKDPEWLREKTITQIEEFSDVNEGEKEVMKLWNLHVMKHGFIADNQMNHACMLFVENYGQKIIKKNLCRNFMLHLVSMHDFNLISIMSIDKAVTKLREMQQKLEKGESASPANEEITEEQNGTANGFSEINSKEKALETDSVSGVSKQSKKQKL
purified human, His-tagged PRC2 complex, sequence (Q6ZN18 whole entry partner): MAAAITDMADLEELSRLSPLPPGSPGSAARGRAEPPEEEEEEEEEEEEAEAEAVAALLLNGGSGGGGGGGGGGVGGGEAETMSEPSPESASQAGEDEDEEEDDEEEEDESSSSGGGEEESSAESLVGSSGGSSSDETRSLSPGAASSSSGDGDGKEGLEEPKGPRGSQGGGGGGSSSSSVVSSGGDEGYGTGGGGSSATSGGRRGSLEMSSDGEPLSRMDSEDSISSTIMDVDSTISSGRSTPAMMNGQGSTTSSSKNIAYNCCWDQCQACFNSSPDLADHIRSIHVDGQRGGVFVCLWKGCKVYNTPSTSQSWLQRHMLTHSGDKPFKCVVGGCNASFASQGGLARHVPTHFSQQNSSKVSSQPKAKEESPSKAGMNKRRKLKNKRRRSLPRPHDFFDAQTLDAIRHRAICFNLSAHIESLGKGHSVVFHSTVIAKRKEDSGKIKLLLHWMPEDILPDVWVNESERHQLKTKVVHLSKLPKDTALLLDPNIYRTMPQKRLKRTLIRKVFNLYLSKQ
purified human, His-tagged PRC2 complex, sequence (Q09028 whole entry partner): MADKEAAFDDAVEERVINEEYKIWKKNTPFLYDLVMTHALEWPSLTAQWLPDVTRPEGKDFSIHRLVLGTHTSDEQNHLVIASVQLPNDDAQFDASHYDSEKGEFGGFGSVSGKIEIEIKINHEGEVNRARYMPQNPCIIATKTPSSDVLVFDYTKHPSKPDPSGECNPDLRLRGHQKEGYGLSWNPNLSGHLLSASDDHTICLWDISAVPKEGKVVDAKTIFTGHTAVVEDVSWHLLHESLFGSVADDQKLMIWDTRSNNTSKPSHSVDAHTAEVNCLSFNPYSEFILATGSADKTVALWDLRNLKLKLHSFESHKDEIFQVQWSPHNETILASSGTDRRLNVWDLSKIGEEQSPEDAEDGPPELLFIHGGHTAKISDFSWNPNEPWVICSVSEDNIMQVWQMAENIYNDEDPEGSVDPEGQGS

Turning to `Cc1cn(-c2cnc(NCc3c(F)ccc4c3CCO4)n3cc(C#N)nc23)cn1` [Example 139, 5-(((5-fluoro-2,3-dihydrobenzofuran-4-yl)methyl)amino)-8-(4-methyl-1H-imidazol-1-yl)imidazo[1,2-c]pyrimidine-2-carbonitrile], the 50% inhibitory concentration (IC50) in the assay on Karpas 422 cells was not above 250 nM. Regarding `Cc1c(-c2cnc(NCc3c(F)ccc4c3CCO4)n3cc(C#N)nc23)cnn1C(C)C` [Example 26, 5-(((5-fluoro-2,3-dihydrobenzofuran-4-yl)methyl)amino)-8-(1-isopropyl-5-methyl-1H-pyrazol-4-yl)imidazo[1,2-c]pyrimidine-2-carbonitrile], in assay [1] (setting [2]), the IC50 was in the range of 100 to 500 nM. On to `Cc1cc(S(C)(=O)=O)ccc1-c1cnc(NCc2c(F)ccc3c2CCO3)n2cc(C#N)nc12` [Example 87, 5-(((5-fluoro-2,3-dihydrobenzofuran-4-yl)methyl)amino)-8-(2-methyl-4-(methylsulfonyl)phenyl)imidazo[1,2-c]pyrimidine-2-carbonitrile], for which the IC50 with Karpas 422 cells was not above 250 nM. In assay [1] (setting [2]), `Cc1cc(-c2cnc(NCc3cccc4c3CCO4)n3cc(C#N)nc23)n(C)n1` [Example 30, 5-(((2,3-dihydrobenzofuran-4-yl)methyl)amino)-8-(1,3-dimethyl-1H-pyrazol-5-yl)imidazo[1,2-c]pyrimidine-2-carbonitrile] came in with a concentration for half-maximal inhibition (IC50) of 100 to 500 nM. Still for that read-out and setting: next, `CN(C)CCn1cc(-c2cnc(NCc3c(F)ccc4c3CCO4)n3cc(C#N)nc23)cn1` [Example 102, 8-(1-(2-(dimethylamino)ethyl)-1H-pyrazol-4-yl)-5-(((5-fluoro-2,3-dihydrobenzofuran-4-yl)methyl)amino)imidazo[1,2-c]pyrimidine-2-carbonitrile]: 100 to 500 nM; `Cc1nn(C(C)C)c(C)c1-c1cnc(NCc2c(F)ccc3c2CCO3)n2cc(C#N)nc12` [Example 92, 5-(((5-fluoro-2,3-dihydrobenzofuran-4-yl)methyl)amino)-8-(1-isopropyl-3,5-dlmethyl-1H-pyrazol-4-yl)imidazo[1,2-c]pyrimidine-2-carbonitrile]: 100 to 500 nM; “8-(1,3-dimethyl-1H-pyrazol-5-yl)-5-(((6-fluorochroman-5-yl)methyl)amino)imidazo[1,2-c]pyrimidine-2-carbonitrile [Example 122]”: more than 500 nM. Same read-out and setting: to `COc1cc(Cl)c(-c2cnc(NCc3c(F)ccc4c3CCO4)n3cc(C#N)nc23)cn1` [Example 91, 8-(4-chloro-6-methoxypyridin-3-yl)-5-(((5-fluoro-2,3-dihydrobenzofuran-4-yl)methyl)amino)imidazo[1,2-c]pyrimidine-2-carbonitrile] belongs 100 to 500 nM; to `N#Cc1cn2c(NCc3c(F)ccc4c3CCO4)ncc(-c3ccc(CN4CCC(O)C4)cc3)c2n1` (centres unmarked) [Example 151, 5-(((5-fluoro-2,3-dihydrobenzofuran-4-yl)methyl)amino)-8-(4-((3-hydroxypyrrolidin-1-yl)methyl)phenyl)imidazo[1,2-c]pyrimidine-2-carbonitrile], less than 100 nM; to `N#Cc1cn2c(NCc3c(F)ccc4c3CCO4)ncc(C3CCOCC3)c2n1` [Example 141, 5-(((5-fluoro-2,3-dihydrobenzofuran-4-yl)methyl)amino)-8-(tetrahydro-2H-pyran-4-yl)imidazo[1,2-c]pyrimidine-2-carbonitrile], more than 500 nM. For the compound `CN(C)Cc1cc(-c2cnc(NCc3c(F)ccc4c3CCO4)n3cc(C#N)nc23)n(C)n1` [Example 210, 8-(3-((dimethylamino)methyl)-1-methyl-1H-pyrazol-5-yl)-5-(((5-fluoro-2,3-dihydrobenzofuran-4-yl)methyl)amino)imidazo[1,2-c]pyrimidine-2-carbonitrile], the concentration for half-maximal inhibition (IC50) in assay [1] is less than 100 nM. On to `Cc1nc(C2CC2)ncc1-c1cnc(NCc2c(F)ccc3c2CCO3)n2cc(C(N)=O)nc12` [Example 15, 8-(2-cyclopropyl-4-methylpyrimidin-5-yl)-5-(((5-fluoro-2,3-dihydrobenzofuran-4-yl)methyl)amino)imidazo[1,2-c]pyrimidine-2-carboxamide], for which the IC50 in assay [1] (setting [2]) fell in the range of 100 to 500 nM. Same read-out and setting: to “5-(((5-fluoro-2,3-dihydrobenzofuran-4-yl)methyl)amino)-8-(4-methyl-1H-imidazol-1-yl)imidazo[1,2-c]pyrimidine-2-carboxamide [Example 17]” belongs 100 to 500 nM; to `COc1ccc(-c2cnc(NCc3c(F)ccc4c3CCO4)n3cc(C#N)nc23)cn1` [Example 94, 5-(((5-fluoro-2,3-dihydrobenzofuran-4-yl)methyl)amino)-8-(6-methoxypyridin-3-yl)imidazo[1,2-c]pyrimidine-2-carbonitrile], less than 100 nM.

Regarding `CNCc1cc(-c2cnc(NCc3c(F)ccc4c3CCO4)n3cc(C#N)nc23)n(C)n1` [Example 211, 5-(((5-fluoro-2,3-dihydrobenzofuran-4-yl)methyl)amino)-8-(1-methyl-3-((methylamino)methyl)-1H-pyrazol-5-yl)imidazo[1,2-c]pyrimidine-2-carbonitrile], the IC50 in assay [1] is less than 100 nM. As to `N#Cc1cn2c(NCc3c(F)ccc4c3CCO4)ncc(-c3ccc(N4CCCCC4)nc3)c2n1` [Example 135, 5-(((5-fluoro-2,3-dihydrobenzofuran-4-yl)methyl)amino)-8-(6-(piperidin-1-yl)pyridin-3-yl)imidazo[1,2-c]pyrimidine-2-carbonitrile], the 50% inhibitory concentration (IC50) in assay [1] (setting [2]) is less than 100 nM.

Turning to `CN(C)C(=O)c1cc(Cl)c(-c2cnc(NCc3c(F)ccc4c3CCO4)n3cc(C#N)nc23)cc1F` [Example 35, 5-chloro-4-(2-cyano-5-(((5-fluoro-2,3-dlhydrobenzofuran-4-yl)methyl)amino)imidazo[1,2-c]pyrimidin-8-yl)-2-fluoro-N,N-dimethylbenzamide], the concentration for half-maximal inhibition (IC50) in assay [1] (setting [2]) is less than 100 nM. Still for that read-out and setting: next, `N#Cc1cn2c(NCc3c(F)ccc4c3CCO4)ncc(-c3ccnn3CCO)c2n1` [Example 231, 5-(((5-fluoro-2,3-dihydrobenzofuran-4-yl)methyl)amino)-8-(1-(2-hydroxyethyl)-1H-pyrazol-5-yl)imidazo[1,2-c]pyrimidine-2-carbonitrile]: 100 to 500 nM; `N#Cc1cncc(-c2cnc(NCc3c(F)ccc4c3CCO4)n3cc(C#N)nc23)c1` [Example 95, 8-(5-cyanopyridin-3-yl)-5-(((5-fluoro-2,3-dihydrobenzofuran-4-yl)methyl)amino)imidazo[1,2-c]pyrimidine-2-carbonitrile]: less than 100 nM.

Take `N#Cc1cn2c(NCc3c(F)ccc4c3CCO4)ncc(-c3cnc(N)c(C(F)(F)F)c3)c2n1` [Example 134, 8-(6-amino-5-(trifluoromethyl)pyridin-3-yl)-5-(((5-fluoro-2,3-dihydrobenzofuran-4-yl)methyl)amino)imidazo[1,2-c]pyrimidine-2-carbonitrile]: the 50% inhibitory concentration (IC50) in assay [1] (setting [2]) was in the range of 100 to 500 nM. Still for that read-out and setting: to `CC(C)n1cc(-c2cnc(NCc3c(F)ccc4c3CCO4)n3cc(C#N)nc23)cn1` [Example 99, 5-(((5-fluoro-2,3-dihydrobenzofuran-4-yl)methyl)amino)-8-(1-isopropyl-1H-pyrazol-4-yl)imidazo[1,2-c]pyrimidine-2-carbonitrile] belongs less than 100 nM; to `N#Cc1cn2c(NCc3c(F)ccc4c3CCO4)ncc(-c3n[nH]cc3Br)c2n1` [Example 232, 8-(4-bromo-1H-pyrazol-3-yl)-5-(((5-fluoro-2,3-dihydrobenzofuran-4-yl)methyl)amino)imidazo[1,2-c]pyrimidine-2-carbonitrile], 100 to 500 nM. In assay [1] (setting [2]), `COc1cc(-c2cnc(NCc3c(F)ccc4c3CCO4)n3cc(C#N)nc23)c(OC)cn1` [Example 125, 8-(2,5-dimethoxypyridin-4-yl)-5-(((5-fluoro-2,3-dihydrobenzofuran-4-yl)methyl)amino)imidazo[1,2-c]pyrimidine-2-carbonitrile] registered a half-maximal inhibitory concentration (IC50) of less than 100 nM.

As a reminder, the IC50 is the point on the concentration scale where inhibition reaches its midpoint.

These data come from patent publication EP4043466B1, “PRC2 INHIBITORS” (Mirati Therapeutics, Inc., priority 2018, dated 2019).
